Results: patent US20230322724A1, “HETEROCYCLIC COMPOUNDS AS CBP/EP300 BROMODOMAIN INHIBITORS” (AURIGENE ONCOLOGY LIMITED, priority 2020, published 2023)

Key:
Format in all cases: binding
[1] = biological target: T1, recombinant CREBBP bromodomain (Homo sapiens, UniProt Q92793); experiment: CBP TR-FRET displacement assay; details: dose-response, read-out: IC50 (group A, B, C)
T1 construct: recombinant CREBBP bromodomain obtained from BPS Bioscience, USA; purchased BPS Bioscience, USA
Procedure, shortened: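 CREBBP bromodomain (50 nM) preincubated 30 min at room temperature with 500 nM biotinylated ligand in HEPES pH 7.5 buffer with TCEP, then 60 min with compound. Eu-anti-His/APC-streptavidin TR-FRET 665/615 nm ratio read; IC50 from sigmoidal dose-response fit.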

[2] = biological target: T2, recombinant P300 bromodomain (Homo sapiens, UniProt Q09472); experiment: P300 TR-FRET displacement assay; details: dose-response, read-out: IC50 (group A, B, C)
T2 construct: recombinant P300 bromodomain obtained from BPS Bioscience, USA; purchased BPS Bioscience, USA
T2 sequence (Q09472 1049-1156 limits assumed): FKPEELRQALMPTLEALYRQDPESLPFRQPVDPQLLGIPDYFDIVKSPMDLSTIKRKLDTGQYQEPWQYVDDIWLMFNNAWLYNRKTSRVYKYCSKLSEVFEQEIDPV
Description: The potency of compounds to inhibit P300 enzyme was tested in a TR-FRET displacement assay using recombinant P300 bromodomain obtained from BPS Bioscience, USA. The assay buffer was 50 mM HEPES (pH 7.5), 50 mM NaCl, 0.008% Brij 35, 0.01% BSA, 1 mM TCEP. 50 nM of P300 & 500 nM of Biotinylated ligand was incubated at room temperature for 30 minutes, the reaction was initiated by adding the pre-incubated enzyme ligand mixture to the test compounds. After 60 min incubation, the reaction was stopped by the addition of stop mix containing 1 nM of LANCE Europium-anti-6xHis antibody (Perkin Elmer, USA) and 40 nM of Sure Light Allophycocyanin-Streptavidin (Perkin Elmer, USA). Fluorescence emission of the samples at 665 and 615 nm were measured at an excitation of 340 nm and their ratio was plotted against the compound concentrations to generate dose-response curve.
Selected compounds of the present invention were screened in the above-mentioned assay procedures and IC50 values were determined by fitting the dose-response data to sigmoidal curve fitting equation using Graph pad prism software V7.

[3] = biological target: T3, recombinant BRD4 FL bromodomain (Homo sapiens, UniProt O60885); experiment: BRD4 FL TR-FRET displacement assay; details: BRD4 FL; for IC50: dose-response, read-out: IC50 (group A, B, C)
T3 construct: fused on or other part: 6xHis tag, inferred from detection with Mab ANTI 6HIS-XL665
Procedure, shortened: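 Recombinant BRD4 FL (10 nM) pre-incubated 30 min at room temperature with 300 nM biotinylated acetyl-histone H4 (K5/8/12/16) in 50 mM HEPES pH 7.5, 50 mM NaCl, 500 μM CHAPS, then added to compounds for 30 min. Stopped with Eu-streptavidin/anti-6His-XL665 in KF; 665/615 nm ratio fitted sigmoidally for IC50.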

T1 sequence (Q92793 1085-1192 limits assumed): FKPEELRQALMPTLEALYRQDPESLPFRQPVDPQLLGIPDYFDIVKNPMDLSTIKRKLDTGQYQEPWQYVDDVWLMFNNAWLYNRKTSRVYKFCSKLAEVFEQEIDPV

IC50 [1]	IC50 [2]	inhibition at 10 µM ([3]; compound at 10 μM, read-out: % Inhibition (10 μM))	IC50 [3]	Structure (SMILES)
< 50 nM	< 25 nM	39%		CNC(=O)c1cc2c(cc1C#N)N(c1cc(OC)cc3c1cc(C)c(=O)n3C)CCN2C [Example 69, 7-cyano-1-(7-methoxy-1,3-dimethyl-2-oxo-1,2-dihydroquinolin-5-yl)-N,4-dimethyl-1,2,3,4-tetrahydroquinoxaline-6-carboxamide]
> 10 nM	> 50000 nM		2010 to 5000 nM	CN1CCN(c2cccc3c2cc(N)c(=O)n3C)c2cc(C#N)c(-c3cnn(C)c3)cc21 [Example 77, 4-(3-Amino-1-methyl-2-oxo-1,2-dihydroquinolin-5-yl)-1-methyl-7-(1-methyl-1H-pyrazol-4-yl)-1,2,3,4-tetrahydroquinoxaline-6-carbonitrile]
< 50 nM	25 to 50 nM		2010 to 5000 nM	COc1cc(N2CCN(C)c3cc(F)c(S(N)(=O)=O)cc32)c2cc(C)c(=O)n(C)c2c1 [Example 86]
< 50 nM	< 25 nM		2010 to 5000 nM	COc1cc(N2CCN(C)c3ccc(S(N)(=O)=O)cc32)c2cc(C)c(=O)n(C)c2c1 [Example 94]
51 to 100 nM	< 25 nM		2010 to 5000 nM	Cc1cc2c(N3CCCc4cc(-c5cnn(C)c5)c(C(F)F)cc43)cncc2n(C)c1=O [Example 180]
